Data on eight compounds can be found in US9932331B2, “Phenyl tetrahydroisoquinoline compound substituted with heteroaryl” (TAISHO PHARMACEUTICAL CO., LTD, priority 2014, dated 2018).

Where a name gives a salt, the structure may show the parent alone.

In the test the target is T1, human NHE3 (Homo sapiens, UniProt P48764).
T1 sequence (P48764 26-834): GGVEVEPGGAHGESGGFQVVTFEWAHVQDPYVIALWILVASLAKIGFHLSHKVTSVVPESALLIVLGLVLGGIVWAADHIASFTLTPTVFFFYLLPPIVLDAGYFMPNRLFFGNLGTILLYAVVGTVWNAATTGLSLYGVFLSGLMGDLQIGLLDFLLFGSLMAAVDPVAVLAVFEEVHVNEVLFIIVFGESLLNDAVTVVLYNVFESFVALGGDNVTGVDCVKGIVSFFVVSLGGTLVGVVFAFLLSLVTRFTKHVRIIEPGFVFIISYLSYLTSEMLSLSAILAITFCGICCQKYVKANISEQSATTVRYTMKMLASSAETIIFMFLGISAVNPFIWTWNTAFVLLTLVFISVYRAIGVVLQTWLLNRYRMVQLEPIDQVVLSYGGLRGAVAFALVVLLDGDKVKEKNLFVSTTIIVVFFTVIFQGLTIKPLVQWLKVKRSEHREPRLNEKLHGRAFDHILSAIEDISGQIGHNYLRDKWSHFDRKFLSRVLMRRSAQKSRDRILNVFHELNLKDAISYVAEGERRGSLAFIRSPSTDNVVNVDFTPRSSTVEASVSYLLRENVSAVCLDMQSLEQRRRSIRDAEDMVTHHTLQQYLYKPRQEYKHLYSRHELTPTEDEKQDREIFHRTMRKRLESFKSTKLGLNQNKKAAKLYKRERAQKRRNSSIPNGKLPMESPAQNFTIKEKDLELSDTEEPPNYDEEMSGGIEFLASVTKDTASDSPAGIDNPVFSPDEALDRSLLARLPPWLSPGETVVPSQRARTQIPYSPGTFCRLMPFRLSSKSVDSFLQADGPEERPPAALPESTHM
Description: NHE3 inhibition test (recovery of intracellular pH in cell line stably expressing human NHE3). In kind it is cell-based. Conditions: OK cells deficient in endogenous NHE stably expressing human NHE3; BCECF fluorescence, initial rate of pH recovery; read-out: human NHE3 inhibitory activity IC50. The method, boiled down:
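IC50 is the concentration halving the initial rate of Na-triggered intracellular pH recovery, tracked by BCECF fluorescence, in NH4Cl-acidified cells. Cells: NHE-deficient OK line stably transfected with human NHE3; compound added in Na-free pH 7.4 buffer.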

For the compound `CN1Cc2c(Cl)cc(Cl)cc2[C@H](c2cccc(-c3cn(CCOCCOCCOCCNC(=O)NCCNC(=O)NCCOCCOCCOCCn4cc(-c5cccc([C@@H]6CN(C)Cc7c(Cl)cc(Cl)cc76)c5)nn4)nn3)c2)C1` [Example 7-34, 1,1′-Ethane-1,2-diylbis {3-[2-(2-{2-[2-(4-{3-[(4S)-6,8-dichloro-2-methyl-1,2,3,4-tetrahydroisoquinolin-4-yl]phenyl}-1H-1,2,3-triazol-1-yl)ethoxy]ethoxy}ethoxy)ethyl]urea}hydrochloride], the IC50 (as a rule, the midpoint of a concentration-inhibition curve) worked out at 3.3 nM.

As to `CN1Cc2c(Cl)cc(Cl)cc2[C@H](c2cccc(-c3nnc(CCOCCOCCOCCNC(=O)[C@@H](O)[C@H](O)[C@H](O)[C@@H](O)C(=O)NCCOCCOCCOCCc4nnc(-c5cccc([C@@H]6CN(C)Cc7c(Cl)cc(Cl)cc76)c5)[nH]4)[nH]3)c2)C1` [Example 8-24, (2R,3S,4R,5S)-N,N′-Bis[2-(2-{2-[2-(5-{3-[(4S)-6,8-dichloro-2-methyl-1,2,3,4-tetrahydroisoquinolin-4-yl]phenyl}-4H-1,2,4-triazol-3-yl)ethoxy]ethoxy}ethoxy)ethyl]-2,3,4,5-tetrahydroxyhexanediamide hydrochloride], the IC50 turned out to be 3.4 nM.

`CN1Cc2c(Cl)cc(Cl)cc2[C@H](c2cccc(-c3cc(NCCOCCOCCNC(=O)Nc4ccc(NC(=O)NCCOCCOCCNc5cc(-c6cccc([C@@H]7CN(C)Cc8c(Cl)cc(Cl)cc87)c6)ncn5)cc4)ncn3)c2)C1` [Example 7-14, 1,1′-Benzene-1,4-diylbis {3-[2-(2-{2-[(6-{3-[(4S)-6,8-dichloro-2-methyl-1,2,3,4-tetrahydroisoquinolin-4-yl]phenyl}pyrimidin-4-yl)amino]ethoxy}ethoxy)ethyl]urea} trifluoroacetate]: the IC50 was found to be 13.9 nM.

As to `CN1Cc2c(Cl)cc(Cl)cc2[C@H](c2cccc(-c3cnnc(NCCOCCOCCOCCNC(=O)[C@H](O)[C@@H](O)C(=O)NCCOCCOCCOCCNc4cc(-c5cccc([C@@H]6CN(C)Cc7c(Cl)cc(Cl)cc76)c5)cnn4)c3)c2)C1` [Example 8-19, (2R,3R)-N,N′-Bis{2-[2-(2-{2-[(5-{3-[(4S)-6,8-dichloro-2-methyl-1,2,3,4-tetrahydroisoquinolin-4-yl]phenyl}pyridazin-3-yl)amino]ethoxy}ethoxy)ethoxy]ethyl}-2,3-dihydroxybutanediamide tetrahydrochloride], the IC50 came to 6.8 nM.

Consider `CN1Cc2c(Cl)cc(Cl)cc2[C@H](c2cccc(-c3ccncc3)c2)C1` [Example 1-1, (4S)-6,8-Dichloro-2-methyl-4-[3-(pyridin-4-yl)phenyl]-1,2,3,4-tetrahydroisoquinoline], for which the IC50 is 217 nM.

Consider `Cc1cc(-c2cccc([C@@H]3CN(C)Cc4c(Cl)cc(Cl)cc43)c2)on1` [Example 5-1, (4S)-6,8-Dichloro-2-methyl-4-[3-(3-methyl-1,2-oxazol-5-yl)phenyl]-1,2,3,4-tetrahydroisoquinoline hydrochloride], for which the half-inhibitory concentration (IC50) was 760 nM.

As to `CN1Cc2c(Cl)cc(Cl)cc2[C@H](c2cccc(-c3nnc(CCOCCOCCNC(=O)NCCCCNC(=O)NCCOCCOCCc4nnc(-c5cccc([C@@H]6CN(C)Cc7c(Cl)cc(Cl)cc76)c5)[nH]4)[nH]3)c2)C1` [Example 7-21, 1,1′-Butane-1,4-diylbis[3-(2-{2-[2-(5-{3-[(4S)-6,8-dichloro-2-methyl-1,2,3,4-tetrahydroisoquinolin-4-yl]phenyl}-4H-1,2,4-triazol-3-yl)ethoxy]ethoxy}ethyl)urea]diformate], the IC50 came to 3.8 nM.

On to `CN1Cc2c(Cl)cc(Cl)cc2[C@H](c2cccc(-c3ccnnc3)c2)C1` [Example 1-17, (4S)-6,8-Dichloro-2-methyl-4-[3-(pyridazin-4-yl)phenyl]-1,2,3,4-tetrahydroisoquinoline trifluoroacetate], for which the IC50 is 109 nM.
